What was measured:
[1] = cells; details: Homo sapiens, HCT-116, 48 h
Description: Cytotoxicity against human HCT116 cells after 48 hrs by sulforhodamine B assay

[2] = cells; details: Homo sapiens, OVCAR-8, 48 h
Description: Cytotoxicity against human OVCAR8 cells after 48 hrs by sulforhodamine B assay

[3] = cells; details: Homo sapiens, DU-145, 48 h
Description: Cytotoxicity against human DU145 cells after 48 hrs by sulforhodamine B assay

[4] = system: NCI-H522; test: cells; details: Homo sapiens, NCI-H522, 48 h
Description: Cytotoxicity against human NCI-H522 cells after 48 hrs by sulforhodamine B assay

[5] = cells; details: Homo sapiens, RXF 393, 48 h
Description: Cytotoxicity against human RXF393 cells after 48 hrs by sulforhodamine B assay

[6] = system: KM12; test: cells; details: Homo sapiens, KM12, 48 h
Description: Cytotoxicity against human KM12 cells after 48 hrs by sulforhodamine B assay

[7] = system: SR; test: Cytotoxicity against human SR cells after 48 hrs by sulforhodamine B assay; assay type: functional
[8] = system: SN12C; test: cells; details: Homo sapiens, 48 h
Description: Cytotoxicity against human SN12C cells after 48 hrs by sulforhodamine B assay

[9] = cells; details: Homo sapiens, UACC-257, 48 h
Description: Cytotoxicity against human UACC257 cells after 48 hrs by sulforhodamine B assay

[10] = system: HT-29; test: cells; details: Homo sapiens, HT-29, 48 h
Description: Cytotoxicity against human HT-29 cells after 48 hrs by sulforhodamine B assay

[11] = cells; details: Homo sapiens, CAKI-1, 48 h
Description: Cytotoxicity against human Caki1 cells after 48 hrs by sulforhodamine B assay

[12] = cells; details: Homo sapiens, SK-OV-3, 48 h
Description: Cytotoxicity against human SKOV3 cells after 48 hrs by sulforhodamine B assay

[13] = cells; details: Homo sapiens, OVCAR-4, 48 h
Description: Cytotoxicity against human OVCAR4 cells after 48 hrs by sulforhodamine B assay

[14] = cells; details: Homo sapiens, LOX IMVI, 48 h
Description: Cytotoxicity against human LOXIMVI cells after 48 hrs by sulforhodamine B assay

[15] = cells; details: Homo sapiens, OVCAR-3, 48 h
Description: Cytotoxicity against human OVCAR3 cells after 48 hrs by sulforhodamine B assay

[16] = cells; details: Homo sapiens, HOP-92, 48 h
Description: Cytotoxicity against human HOP92 cells after 48 hrs by sulforhodamine B assay

[17] = system: Malme-3M; test: cells; details: Homo sapiens, 48 h
Description: Cytotoxicity against human MALME-3M cells after 48 hrs by sulforhodamine B assay

[18] = cells; details: Homo sapiens, UACC-62, 48 h
Description: Cytotoxicity against human UACC62 cells after 48 hrs by sulforhodamine B assay

[19] = system: M14; test: cells; details: Homo sapiens, M14, 48 h
Description: Cytotoxicity against human M14 cells after 48 hrs by sulforhodamine B assay

[20] = Cytotoxicity against human Hs 578T cells after 48 hrs by sulforhodamine B assay; assay type: functional
[21] = cells; details: Homo sapiens, TK-10, 48 h
Description: Cytotoxicity against human TK10 cells after 48 hrs by sulforhodamine B assay

[22] = system: MDA-MB-435; test: cells; details: Homo sapiens, MDA-MB-435, 48 h
Description: Cytotoxicity against human MDA-MB-435 cells after 48 hrs by sulforhodamine B assay

[23] = system: A498; test: cells; details: Homo sapiens, A498, 48 h
Description: Cytotoxicity against human A498 cells after 48 hrs by sulforhodamine B assay

[24] = system: CCRF-CEM; test: cells; details: Homo sapiens, 48 h
Description: Cytotoxicity against human CCRF-CEM cells after 48 hrs by sulforhodamine B assay

[25] = cells; details: Homo sapiens, HCC 2998, 48 h
Description: Cytotoxicity against human HCC2998 cells after 48 hrs by sulforhodamine B assay

[26] = cells; details: Homo sapiens, UO-31, 48 h
Description: Cytotoxicity against human UO31 cells after 48 hrs by sulforhodamine B assay

[27] = cells; details: Homo sapiens, MOLT-4, 48 h
Description: Cytotoxicity against human MOLT4 cells after 48 hrs by sulforhodamine B assay

[28] = system: EKVX; test: cells; details: Homo sapiens, 48 h
Description: Cytotoxicity against human EKVX cells after 48 hrs by sulforhodamine B assay

[29] = system: T47D; test: cells; details: Homo sapiens, 48 h
Description: Cytotoxicity against human T47D cells after 48 hrs by sulforhodamine B assay

[30] = system: NCI-H460; test: cells; details: Homo sapiens, NCI-H460, 48 h
Description: Cytotoxicity against human NCI-H460 cells after 48 hrs by sulforhodamine B assay

[31] = system: A549; test: cells; details: Homo sapiens, A549, 48 h
Description: Cytotoxicity against human A549 cells after 48 hrs by sulforhodamine B assay

[32] = system: SK-MEL-5; test: cells; details: Homo sapiens, SK-MEL-5, 48 h
Description: Cytotoxicity against human SK-MEL-5 cells after 48 hrs by sulforhodamine B assay

[33] = cells; details: Homo sapiens, SF-268, 48 h
Description: Cytotoxicity against human SF268 cells after 48 hrs by sulforhodamine B assay

[34] = system: SK-MEL-28; test: cells; details: Homo sapiens, SK-MEL-28, 48 h
Description: Cytotoxicity against human SK-MEL-28 cells after 48 hrs by sulforhodamine B assay

[35] = cells; details: Homo sapiens, RPMI-8226, 48 h
Description: Cytotoxicity against human RPMI8226 cells after 48 hrs by sulforhodamine B assay

[36] = system: 786-0; test: cells; details: Homo sapiens, 786-0, 48 h
Description: Cytotoxicity against human 786-0 cells after 48 hrs by sulforhodamine B assay

[37] = read-out: LC50 (the source's name)

O=C1Nc2ccccc2/C1=C/c1cn(CC(O)Cn2cc(/C=C3\C(=O)Nc4ccccc43)c3ccccc32)c2ccccc12 (configuration not stated)
GI50 [1]: 1.6 µM | TGI [1]: 4.1 µM | CC50 ([1]; read-out: LC50): 12.5 µM | GI50 [2]: 2.3 µM | TGI [2]: 4.7 µM | GI50 [3]: 1.5 µM | TGI [3]: 2.9 µM | CC50 ([3]; read-out: LC50): 5.6 µM | GI50 [4]: 1.6 µM | TGI [4]: 3.5 µM | GI50 [5]: 2.04 µM | TGI [5]: 3.7 µM | CC50 ([5]; read-out: LC50): 6.9 µM | GI50 [6]: 1.4 µM | TGI [6]: 3.3 µM | GI50 [7]: 0.39 µM | CC50 [7, 37]: > 100 µM | GI50 [8]: 1.5 µM | TGI [8]: 3.1 µM | CC50 ([8]; read-out: LC50): 6.5 µM | GI50 [9]: 2.3 µM | TGI [9]: 4.4 µM | CC50 ([9]; read-out: LC50): 8.3 µM | GI50 [10]: 1.4 µM | TGI [10]: 3.5 µM | CC50 ([10]; read-out: LC50): 8.7 µM | GI50 [11]: 1.6 µM | TGI [11]: 3.3 µM | CC50 ([11]; read-out: LC50): 7.1 µM | GI50 [12]: 1.6 µM | TGI [12]: 3.6 µM | CC50 ([12]; read-out: LC50): 8.1 µM | GI50 [13]: 1.8 µM | TGI [13]: 3.9 µM | GI50 [14]: 0.32 µM | TGI [14]: 1.3 µM | CC50 ([14]; read-out: LC50): 4.1 µM | GI50 [15]: 1.6 µM | TGI [15]: 3.3 µM | CC50 ([15]; read-out: LC50): 6.6 µM | GI50 [16]: 1.8 µM | TGI [16]: 4.1 µM | CC50 ([16]; read-out: LC50): 9.5 µM | GI50 [17]: 1.5 µM | TGI [17]: 3.2 µM | CC50 ([17]; read-out: LC50): 7.1 µM | GI50 [18]: 1.6 µM | TGI [18]: 3.1 µM | CC50 ([18]; read-out: LC50): 6.1 µM | GI50 [19]: 1.3 µM | TGI [19]: 2.8 µM | CC50 ([19]; read-out: LC50): 6.02 µM | GI50 [20]: 2.4 µM | TGI [20]: 7.8 µM | CC50 [20, 37]: > 100 µM | GI50 [21]: 2.7 µM | TGI [21]: 5.4 µM | CC50 ([21]; read-out: LC50): 14.4 µM | GI50 [22]: 1.8 µM | TGI [22]: 3.4 µM | CC50 ([22]; read-out: LC50): 6.6 µM | GI50 [23]: 2.2 µM | TGI [23]: 4.1 µM | CC50 ([23]; read-out: LC50): 7.6 µM | GI50 [24]: 2.8 µM | TGI [24]: 13.4 µM | CC50 ([24]; read-out: LC50): > 100 µM | GI50 [25]: 2.2 µM | TGI [25]: 5.2 µM | CC50 ([25]; read-out: LC50): 17.3 µM | GI50 [26]: 1.2 µM | TGI [26]: 2.9 µM | CC50 ([26]; read-out: LC50): 6.7 µM | GI50 [27]: 2.5 µM | TGI [27]: 7.4 µM | CC50 ([27]; read-out: LC50): > 100 µM | GI50 [28]: 1.8 µM | TGI [28]: 3.7 µM | CC50 ([28]; read-out: LC50): 7.8 µM | GI50 [29]: 1.6 µM | TGI [29]: 3.8 µM | GI50 [30]: 0.48 µM | TGI [30]: 1.8 µM | CC50 ([30]; read-out: LC50): 6.6 µM | GI50 [31]: 1.5 µM | TGI [31]: 3.2 µM | CC50 ([31]; read-out: LC50): 6.8 µM | GI50 [32]: 1.9 µM | TGI [32]: 3.8 µM | CC50 ([32]; read-out: LC50): 7.3 µM | GI50 [33]: 1.7 µM | TGI [33]: 3.9 µM | CC50 ([33]; read-out: LC50): 8.7 µM | GI50 [34]: 1.7 µM | TGI [34]: 3.5 µM | CC50 ([34]; read-out: LC50): 6.9 µM | GI50 [35]: 2.1 µM | TGI [35]: 5.4 µM | CC50 ([35]; read-out: LC50): > 100 µM | GI50 [36]: 1.6 µM | TGI [36]: 3.2 µM | CC50 ([36]; read-out: LC50): 6.1 µM

Reference: ChEMBL document CHEMBL3785084, “Rational modification of the lead molecule: Enhancement in the anticancer and dihydrofolate reductase inhibitory activity” (Bioorg Med Chem Lett, 2016)
